Results from US6337316B1, “Pharmaceutical compositions thereof, and methods of using same” (Applied Research Systems ARS Holding N.V., priority 1997, dated 2002).
Bridge positions count the residues as written; N and C are the ends. Ends that are not written are not given here.

Assays:
[1] = tested on: binding of CTLA-4Ig to B7 on Cess B cells; experiment: CTLA-4Ig/B7 binding assay on Cess B cells by FACS; details: FACS; assays of 3/24, 3/25, 4/5, 4/25; one symbol per assay
Experimental: +++ was assigned if the peptide tested gave >50% change in cpm in a dose dependent fashion. In addition to the MLR, these 34 peptides were also evaluated in a CTLA-4Ig/B7 binding assay in which the ability of these peptides to affect the binding of CTLA-4Ig to B7 on Cess B cells was examined by FACS analysis.
As with the MLR, a + or − was assigned to each peptide depending on its ability to effect CTLA-4Ig binding to Cess B cells; where − represents no change in binding, + represents a minor change of <10% in binding, and a ++ represents a change of >20% in binding.

[2] = tested on: lymphocyte proliferation in the human MLR; format: cell-based; details: for effect on the human MLR in combination with CTLA-4Ig: CTLA-4Ig spiked in at 0.5 μg/ml (FIG. 8); for Human MLR (ability to inhibit lymphocyte proliferation, cpm): peptide 12.5 to 100 μM, assays of 1/24, 1/31, 3/6, 4/17, 5/2, one symbol per assay
Experimental: Whole blood from donors was obtained from Interstate Blood Bank, Memphis, Tenn. Blood specimens were handled in a biosafety level 2 containment facility as recommended for potentially infectious blood specimens in the CDC/NIH manual Biosafety in Microbiological and Biomedical Laboratories; 3rd edition, 1993, page 10. Peripheral blood mononuclear cells (PBMC) were separated from red blood cells and granulocytes by ficoll-hypaque purification. Whole peripheral blood was diluted 1:2 in PBS and 30 ml was overlayed onto 15 ml of ficoll-hypaque in 50 ml polypropylene tubes. The tubes were spun at 400×g for 30 min at 25° C. Following centrifugation, the interface between the upper plasma layer and the lower ficoll layer was collected, cells washed in RPMI-1640 2×, and viable counts determined using trypan blue. Cells to be used as responders in the assay were stored on ice until mitomycin C treatment of stimulator cells was completed.
PBMC, isolated as described above, to be used as stimulators in the assay were adjusted to 2-4×10^6 cells/ml in complete medium (RPMI 1640 containing 10% heat-inactivated human AB serum, 2 mM glutamine, 50 μM 2-mercaptoethanol and 100 U/ml penicillin-100 μg/ml streptomycin), and treated with mitomycin C (25 μg/ml) for 30 min in a 37° C. water bath. Following treatment, cells were washed with S volumes of complete medium 3×, and viable counts determine using trypan blue. To set up autologous stimulation controls some responder cells were also treated with mitomycin C as mentioned above.
Purified CTLA-4Ig fusion protein was produced, as described in Steurer et al. 1995, from a NS-1 cell line kindly donated by Dr. T. Strom (Beth Israel Hospital, Boston, Mass.) as a 1 mg/ml solution in sterile PBS. The protein was stored frozen at −80° C. Upon thawing, the aliquot was stored at 4° C. Purified peptides were lyophilized according to known procedures. Peptides were reconstituted in sterile PBS, pH 7.4 at 2 mM concentration, aliquoted in microfuge cubes and stored frozen at −20° C. For the assay, an aliquot of the peptide was thawed and diluted to 200 μM in complete medium.
For the one-way allogeneic mixed lymphocyte response (MLR) assay, responder cells were plated at 10^6 cells/well, and stimulator cells at 5×10^4 cells/well in 96-well round bottom plates. Cells were incubated with serial dilutions of the anti-CD4 Ab Leu 3A (1 μg/ml-0.06 μg/ml) in triplicate, or an isotype-matched control Ab. Cyclosporin A at 1 μg/ml was used as an additional control.
CTLA-4 Ig was serially diluted an.4 tested from 10 μg/ml to 0.15 μg/ml. Peptides were tested either directly or in the presence of a constant spiked-in dose of CTLA-4 Ig at 0.5 μg/ml. The plates were incubated at 37° C. in a humidified 5% CO2 atmosphere for 7 days.
Proliferation of the cells was determined by pulsing the wells with ^3H-Tdr (1 μCi/well) for the last 18 h of the assay. Plates were harvested using a Tomtec -late harvester and the counts incorporated determined using a Wallac microbetaplate plus reader.
A total of 34 peptides were tested for inhibition of lymphocyte proliferation in the human MLR. Each peptide was tested in a MLR at doses ranging from 12.5 to 100 μM. The activity of each peptide was identified by assigning a + and − tone peptide depending on its ability to inhibit lymphocyte proliferation in the MLR (cpms).

[3] = tested on: murine MLR splenocyte proliferation; experiment: One-way murine MLR (C57Bl/6 stimulators, BalB/c responders); format: cell-based, mouse; details: peptides tested 100 μM to 1.56 μM (FIG. 9)
Experimental: One-way murine MLRs were set up using the C57Bl/6 mice splenocytes as stimulators and BalB/c splenocytes as responders.
Spleens were excised from mice (Jackson Laboratories, Bar Harbor, Ma.) 6-8 weeks of age. Cells were separated from the capsule using sterile frosted glass slides and washed in cold RPMI 1640 1×. Red blood cells were lysed by treating the spleen cell suspension with cold Tris ammonium chloride buffer (2 ml/spleen) for 3 min on ice. After lysis, the cells were washed 2× in 5 volumes of complete medium (RPMI 1640 containing 10 % heat-inactivated FBS, 2 mM glutamine, 50 μM 2-mercaptoethanol, 100 U/ml penicillin-100 μg/ml strepcomycin, 1 mM sodium pyruvate and 1 mM non-essential amino acids).
Plastic-adherent cells were removed from splenocytes of BalB/c mice by adjusting the cell concentration to 3×10^6 cells/ml in complete medium and incubating the cells for 1.5-2 h at 37° C. in T-75 flasks. Following incubation non-adherent cells were collected by gently washing the flasks and the percent recovery determined (60-70%). Bal b/C responder cells were stored on ice until mitomycin C treatment of stimulator cells was completed.
Following RBC lysis splenocytes of C57Bl/6 mice were adjusted to 2-4×10^6 cells/ml in complete medium and treated with mitomycin C (50 μg/ml) for 30 min at 37° C. in a humidified 5% CO2 in air atmosphere. Following treatment, cells were washed with 5 volumes of complete medium 3×, and viable counts determined using trypan blue.
To set up autologous stimulation controls some responder cells were also treated with mitomycin C as mentioned above.
For the assay, responder and stimulator cells were plated at 10^5 cells/well in 96-well round bottom plates. […]
Appropriate scrambled peptide controls and matrix controls were included in every assay. […] Proliferation of the cells was determined by pulsing the wells with 3H-Tdr (1 μCi/well) For the last 6 h of the assay. Plates were harvested and the counts incorporated determined as described above.

B7 on Cess B cells [4] = experiment: cell-based or functional assay
B7 on Cess B cells [5] = experiment: FACS competition with CTLA-4Ig on Cess B cells; one grade per run; - no change, + <10% change, ++ >20% change

RKCLGYPPPYYCHH (not fully specified (bridges); cysteine pairing not given here) [AT 201.1]
Binding Assay (effect on CTLA-4Ig binding to Cess B cells) [1]: −, −, −
effect on the human MLR in combination with CTLA-4Ig [2]: no effect
inhibition of the MLR, in words ([2]; control and linear peptides compared with AT 199): did not inhibit any of the MLRs as much as AT 199
Human MLR (ability to inhibit lymphocyte proliferation, cpm) [2]: −, −, −
inhibition of the murine MLR [3]: 25%

AT 199.3: resynthesis of AT 199.1 using the original protocols without change (RKCLMYPPPYYCHH; disulfide 3-12 (inferred); not fully specified (C-terminus); also: disulfide cyclisation only partial, mixed cyclic and linear population)
inhibition of the human MLR ([2]; 100 μM, one MLR): 30%
effect on the human MLR in combination with CTLA-4Ig [2]: inhibited the MLR over and above CTLA-4Ig by itself
inhibition of the murine MLR [3]: 85%

CMYPPPYKAKC (disulfide 1-11 (inferred)) [AT 112.1]
Binding Assay (effect on CTLA-4Ig binding to Cess B cells) [1]: −, −
Human MLR (ability to inhibit lymphocyte proliferation, cpm) [2]: − (all concentrations of peptide tested gave <15% change in cpm)

B1: AT 199.1 (peptide)
peptide: RKCLMYPPPYYCHH
modifications: disulfide 3-12; not fully specified (C-terminus)
apparent IC50 of inhibition in the MLR (B7 on Cess B cells [4]): 50 to 100 µM
inhibition of human MLR by batch AT 199.2A at 100 µM, one MLR (B7 on Cess B cells [4]): 50%
inhibition of human MLR by batch AT 199.2A, another MLR (B7 on Cess B cells [4]): 25%
inhibition of human MLR by batch AT 199.3 at 100 µM, one MLR (B7 on Cess B cells [4]): 30%
inhibition of lymphocyte proliferation in a human MLR (AT 199, doses up to 100 µM) (B7 on Cess B cells [4]): 70%
inhibition of lymphocyte proliferation in a second human MLR (AT 199, doses up to 100 µM) (B7 on Cess B cells [4]): 30%

B2: AT 129.1 (peptide)
peptide: CMYPPPYYRGGKC
modifications: disulfide 1-13 (inferred); not fully specified (C-terminus)
percent change in CTLA-4Ig binding to B7 on Cess B cells (FACS) (B7 on Cess B cells [5]): > 20%

B3: AT 117.1 (peptide)
peptide: LDSAVEV-OH
percent change in CTLA-4Ig binding to B7 on Cess B cells (FACS) (B7 on Cess B cells [5]): < 10%

B4: AT 128.1 (peptide)
peptide: CRQADSQVTEC
modifications: disulfide 1-11 (inferred); not fully specified (C-terminus)
percent change in CTLA-4Ig binding to B7 on Cess B cells (FACS) (B7 on Cess B cells [5]): < 10%

B5: AT 135.1 (peptide)
peptide: CSPNQC
modifications: disulfide 1-6 (inferred); not fully specified (C-terminus)
percent change in CTLA-4Ig binding to B7 on Cess B cells (FACS) (B7 on Cess B cells [5]): > 20%
